Assay results as given in patent publication US10844044B2 (Vanderbilt University, priority 2018, dated 2020).
pKi: −log10 of the molar value. Like-named read-outs stand apart in the source and are kept apart here.

Tests used:
WDR5 = WDR5 (Homo sapiens (Human), UniProt P61964); test: TR-FRET binding assay (displacement of 10mer-Thr-FAM probe from WDR5)
[1] = system: MV4:11 human cancer cell lines; test: Anti-proliferative activity, CellTiter-Glo viability assay, 7 day protocol; format: cell-based; conditions: Homo sapiens, MV4-11, 168 h, MV4:11 cells, 7 day incubation, read-out: GI50 on cellular proliferation of MV4:11 human cancer cell lines
How it was run: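 Luminescent CellTiter-Glo readout after 7-day compound exposure of MV4:11 cells plated at 3600 cells/ml (final DMSO 0.1%). GI50 derived from three biological × three technical replicates, reported as mean ± S.E.M.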

[2] = read-out: Ki for Inhibition of WDR5 by TR-FRET assay, TR-FRET, 10mer-Thr-FAM probe, WDR5-His tag 2 nM, pH 7.0

| pKi (WDR5) | SMILES | pKi (WDR5; [2]) | GI50 [1] [nM] | pKi (WDR5; read-out: Ki for Inhibition of WDR5 by TR-FRET assay) |
| --- | --- | --- | --- | --- |
|  | Cn1ccn(Cc2cc(C(=O)NC3(c4cccc(Br)c4)CCC3)c(F)c(-c3ccc(F)cc3C(F)(F)F)c2)c1=N [Example 186, N-(1-(3-Bromophenyl)cyclobutyl)-2,4′-difluoro-5-((2-imino-3-methyl-2,3-dihydro-1H-imidazol-1-yl)methyl)-2′-(trifluoromethyl)-[1,1′-biphenyl]-3-carboxamide] | > 10.00 | 580 |  |
|  | Cn1ccn(Cc2cc(C(=O)N[C@H](c3ccc(Cl)c(Cl)c3)C3CC3)cc(-c3ncc(F)cc3C(F)(F)F)c2)c1=N [Example 187] | > 10.00 | 440 |  |
| > 10.00 | Cc1cc([C@@H](NC(=O)c2cc(Cn3ccn(C)c3=N)cc(-c3ccc(F)cc3C(F)(F)F)c2)C2CC2)ccc1F [Example 188, (S)—N-(Cyclopropyl(4-fluoro-3-methylphenyl)methyl)-4′-fluoro-5-((2-imino-3-methyl-2,3-dihydro-1H-imidazol-1-yl)methyl)-2′-(trifluoromethyl)-[1,1′-biphenyl]3-carboxamide] |  | < 100 |  |
|  | Cn1ccn(Cc2cc(C(=O)N[C@H](c3ccc(F)c(F)c3)C3CC3)cc(-c3cccnc3C(F)(F)F)c2)c1=N [Example 189, (S)—N-(Cyclopropyl(3,4-difluorophenyl)methyl)-3-((2-imino-3-methyl-2,3-dihydro-1H-imidazol-1-yl)methyl)-5-(2-(trifluoromethyl)pyridin-3-yl)benzamide] | > 10.00 | 120 |  |
|  | CCn1cc(-c2cc(Cn3ccn(C4CC4)c3=N)cc(C(=O)N[C@H](c3ccc(F)c(F)c3)C3CC3)c2)c(C(F)(F)F)n1 [Example 190, (S)—N-(Cyclopropyl(3,4-difluorophenyl)methyl)-3-((3-cyclopropyl-2-imino-2,3-dihydro-1H-imidazol-1-yl)methyl)-5-(1-ethyl-3-(trifluoromethyl)-1H-pyrazol-4-yl)benzamide] | 9.96 | 190 |  |
|  | CCn1cc(-c2cc(Cn3ccn(C)c3=N)cc(C(=O)N[C@H](c3ccc(F)c(F)c3)C3CC3)c2)c(C(F)(F)F)n1 [Example 191] | > 10.00 | 80 |  |
|  | C=C(c1cc(Cn2ccn(C)c2=N)cc(C(=O)N[C@H](c2ccc(F)c(C)c2)C2CC2)c1)C(F)(F)F [Example 192, (S)—N-(cyclopropyl(4-fluoro-3-methylphenyl)methyl)-3-((2-imino-3-methyl-2,3-dihydro-1H-imidazol-1-yl)methyl)-5-(3,3,3-trifluoroprop-1-en-2-yl)benzamide] | > 10.00 | 500 |  |
|  | Cc1cc([C@@H](NC(=O)c2cc(Cn3ccn(C)c3=N)cc(-c3cn(C(C)C)nc3C(F)(F)F)c2)C2CC2)ccc1F [Example 193, (S)—N-(Cyclopropyl(4-fluoro-3-methylphenyl)methyl)-3-((2-imino-3-methyl-2,3-dihydro-1H-imidazol-1-yl)methyl)-5-(1-isopropyl-3-(trifluoromethyl)-1H-pyrazol-4-yl)benzamide] | > 10.00 | < 100 |  |
|  | Cc1cc([C@@H](NC(=O)c2cc(Cn3ccn(C4CC4)c3=N)cc(-c3cn(C(C)C)nc3C(F)(F)F)c2)C2CC2)ccc1F [Example 194, (S)—N-(Cyclopropyl(4-fluoro-3-methylphenyl)methyl)-3-((3-cyclopropyl-2-imino-2,3-dihydro-1H-imidazol-1-yl)methyl)-5-(1-isopropyl-3-(trifluoromethyl)-1H-pyrazol-4-yl)benzamide] | > 10.00 | < 100 |  |
|  | Cc1cc([C@@H](NC(=O)c2cc(Cn3ccn(C)c3=N)cc(C(C)C(F)(F)F)c2)C2CC2)ccc1F (stereo partly drawn) [Example 195, N—((S)-Cyclopropyl(4-fluoro-3-methylphenyl)methyl)-3-((2-imino-3-methyl-2,3-dihydro-1H-imidazol-1-yl)methyl)-5-(1,1,1-trifluoropropan-2-yl)benzamide] | > 10.00 | 940 |  |
|  | Cc1cc([C@@H](NC(=O)c2cc(Cn3ccn(C)c3=N)cc(-c3cc(C(F)(F)F)nn3C)c2)C2CC2)ccc1F [Example 196, (S)—N-(Cyclopropyl(4-fluoro-3-methylphenyl)methyl)-3-((2-imino-3-methyl-2,3-dihydro-1H-imidazol-1-yl)methyl)-5-(1-methyl-3-(trifluoromethyl)-1H-pyrazol-5-yl)benzamide] | > 10.00 | < 100 |  |
|  | CCn1cc(-c2cc(Cn3ccn(C)c3=N)cc(C(=O)NCc3ccc(F)c(C)c3)c2)c(C(F)(F)F)n1 [Example 198, 3-(1-Ethyl-3-(trifluoromethyl)-1H-pyrazol-4-yl)-N-(4-fluoro-3-methylbenzyl)-5-((2-imino-3-methyl-2,3-dihydro-1H-imidazol-1-yl)methyl)benzamide] | > 10.00 | < 100 |  |
|  | CCn1cc(-c2cc(Cn3ccn(C4CC4)c3=N)cc(C(=O)NCc3ccc(=O)n(C)c3)c2)c(C(F)(F)F)n1 [Example 199, 3-((3-Cyclopropyl-2-imino-2,3-dihydro-1H-imidazol-1-yl)methyl)-5-(1-ethyl-3-(trifluoromethyl)-1H-pyrazol-4-yl)-N-((1-methyl-6-oxo-1,6-dihydropyridin-3-yl)methyl)benzamide] | 9.52 | 940 |  |
|  | CCn1cc(-c2cc(Cn3ccn(C)c3=N)cc(C(=O)NCc3ccc(=O)n(C)c3)c2)c(C(F)(F)F)n1 [Example 200, 3-(1-Ethyl-3-(trifluoromethyl)-1H-pyrazol-4-yl)-5-((2-imino-3-methyl-2,3-dihydro-1H-imidazol-1-yl)methyl)-N-((1-methyl-6-oxo-1,6-dihydropyridin-3-yl)methyl)benzamide] | 9.82 | 710 |  |
|  | Cc1cc([C@@H](NC(=O)c2cc(Cn3ccn(C)c3=N)cc(-c3ccccc3C)c2)C2CC2)ccc1F [Example 201, (S)—N-(Cyclopropyl(4-fluoro-3-methylphenyl)methyl)-5-((2-imino-3-methyl-2,3-dihydro-1H-imidazol-1-yl)methyl)-2′-methyl-[1,1′-biphenyl]-3-carboxamide] | > 10.00 | 140 |  |
|  | CCn1cc(-c2cc(Cn3ccn(C4CC4)c3=N)cc(C(=O)N[C@H](c3ccc(F)c(Cl)c3)C3CC3)c2)c(C(F)(F)F)n1 [Example 202, (S)—N-((3-Chloro-4-fluorophenyl)(cyclopropyl)methyl)-3-((3-cyclopropyl-2-imino-2,3-dihydro-1H-imidazol-1-yl)methyl)-5-(1-ethyl-3-(trifluoromethyl)-1H-pyrazol-4-yl)benzamide] | > 10.00 | < 100 |  |
|  | Cc1cc([C@@H](NC(=O)c2cc(CN3CCN(C)C3=N)cc(-c3cn(C)nc3C(F)(F)F)c2)C2CC2)ccc1F [Example 203, (S)—N-(cyclopropyl(4-fluoro-3-methylphenyl)methyl)-3-((2-imino-3-methylimidazolidin-1-yl)methyl)-5-(1-methyl-3-(trifluoromethyl)-1H-pyrazol-4-yl)benzamide] |  | < 100 | > 10.00 |
|  | Cc1cc([C@@H](NC(=O)c2cc(Cn3ccn(C4CC4)c3=N)cc(-c3cn(C)nc3C(F)(F)F)c2)C2CC2)ncc1F [Example 204, (S)—N-(Cyclopropyl(5-fluoro-4-methypyridin-2-yl)methyl)-3-((3-cyclopropyl-2-imino-2,3-dihydro-1H-imidazol-1-yl)methyl)-5-(1-methyl-3-(trifluoromethyl)-1H-pyrazol-4-yl)benzamide] | > 10.00 | < 100 |  |
|  | Cc1cc([C@@H](NC(=O)c2cc(Cn3ccn(C)c3=N)cc(-c3cn(C)nc3C(F)(F)F)c2)C2CC2)ncc1F [Example 205, (S)—N-(Cyclopropyl(5-fluoro-4-methylpyridin-2-yl)methyl)-3-((2-imino-3-methyl-2,3-dihydro-1H-imidazol-1-yl)methyl)-5-(1-methyl-3-(trifluoromethyl)-1H-pyrazol-4-yl)benzamide] | > 10.00 | < 100 |  |
|  | COc1cc([C@@H](NC(=O)c2cc(Cn3ccn(C)c3=N)cc(-c3cn(C)nc3C(F)(F)F)c2)C2CC2)ccc1F [Example 207] | > 10.00 | < 100 |  |
|  | CCOc1c(C(=O)N[C@@H](C)c2ccc(F)c(C)c2)cc(Cn2ccn(C)c2=N)cc1-c1cn(C)nc1C(F)(F)F [Example 209, (S)-2-Ethoxy-N-(1-(4-fluoro-3-methylphenyl)ethyl)-5-((2-imino-3-methyl-2,3-dihydro-1H-imidazol-1-yl)methyl)-3-(1-methyl-3-(trifluoromethyl)-1H-pyrazol-4-yl)benzamide] | > 10.00 | < 100 |  |
|  | CCOc1c(C(=O)N[C@H](c2ccc(F)c(C)c2)C2CC2)cc(Cn2ccn(C)c2=N)cc1-c1cn(C)nc1C(F)(F)F [Example 210, (S)—N-(Cyclopropyl(4-fluoro-3-methylphenyl)methyl)-2-ethoxy-5-((2-iminio-3-methyl-2,3-dihydro-1H-imidazol-1-yl)methyl)-3-(1-methyl-3-(trifluoromethyl)-1H-pyrazol-4-yl)benzamide] | > 10.00 | < 100 |  |
|  | Cn1cc(-c2cc(Cn3ccn(C)c3=N)cc(C(=O)N[C@H](c3ccc(Cl)c(Cl)c3)C3CC3)c2)c(C(F)(F)F)n1 [Example 211] | > 10.00 | < 100 |  |
| > 10.00 | CCn1cc(-c2cc(CN3CCN(C)C3=N)cc(C(=O)N[C@H](c3ccc(F)c(F)c3)C3CC3)c2)c(C(F)(F)F)n1 [Example 213, (S)—N-(Cyclopropyl(3,4-difluorophenyl)methyl)-3-(1-ethyl-3-(trifluoromethyl)-1H-pyrazol-4-yl)-5-((2-imino-3-methylimidazolidin-1-yl)methyl)benzamide] |  | < 100 |  |

| SMILES | pKi (WDR5) | pKi (WDR5; [2]) | GI50 [1] [nM] | pKi (WDR5; read-out: Ki for Inhibition of WDR5 by TR-FRET assay) |
| --- | --- | --- | --- | --- |
| CCn1cc(-c2cc(CN3CCN(C)C3=N)cc(C(=O)N[C@H](c3ccc(F)c(C)c3)C3CC3)c2)c(C(F)(F)F)n1 [Example 212, (S)—N-(Cyclopropyl(4-fluoro-3-methylphenyl)methyl)-3-(1-ethyl-3-(trifluoromethyl)-1H-pyrazol-4-yl)-5-((2-imino-3-methylimidazolidin-1-yl)methyl)benzamide] | > 10.00 |  | < 100 |  |
